The results in this text go back to patent publication US8524713B2, “Substituted spirocyclic piperidine derivatives as histamine-3 (H3) receptor ligands” (Cephalon, Inc, priority 2008, dated 2013).

One series has as its target T1, human H3 receptor (Homo sapiens, UniProt Q9Y5N1).
T1 construct: expressed in transfected cells; membrane preparation
In words: Human H3 radioligand binding ([3H]-N-alpha-methylhistamine, SPA). The settings on record: membranes of CHO cells expressing human H3 receptor; [3H]-N-alpha-methylhistamine about 1 nM. The procedure:
(§1) Methods: CHO cells stably expressing the human H3 receptor (GenBank: NM_007232) were harvested and cell pellets were frozen (−80° C.). Cell pellets were resuspended in 5 mM Tris-HCl, pH 7.5 with […] and a cocktail of protease inhibitors (Complete Protease Inhibitior Tablets, Roche Diagnostics). Cells were disrupted using a polytron cell homogenizer and the suspension was centrifuged at 1000×g for 10 minutes at 4° C. The pellet was discarded and the supernatant centrifuged at 40,000×g for 30 min at 4° C. This membrane pellet was washed in membrane buffer containing 50 mM Tris-HCl, pH 7.5 with 0.6 mM EDTA, 5 mM MgCl2 and protease inhibitors, recentrifuged as above and the final pellet resuspended in membrane buffer plus 250 mM sucrose and frozen at −80° C.
(§2) Radioligand Binding. Membranes were resuspended in 50 mM Tris HCl (pH 7.4), 5 mM MgCl2, 0.1% BSA. The membrane suspensions (10 μg protein per well) were incubated in a 96 well microtiter plate with [^3H]-N-alpha-methylhistamine (approximately 1 nM final concentration), test compounds at various concentrations (0.01 nM-30 μM) and scintillation proximity beads (Perkin Elmer, FlashBlueGPCR Scintillating Beads) in a final volume of 80 μl for 4 hours at room temperature, protected from light. Non-specific binding was determined in the presence of 10 μM clobenpropit. Radioligand bound to receptor, and therefore in proximity to the scintillation beads, was measured using a MicroBeta scintillation counter.

The target of series [1] is T2, rat histamine H3 receptor (Rattus norvegicus, UniProt Q9QYN8).
T2 construct: encoding the entire 445-amino-acid rat histamine H3 receptor; expressed in transfected cells; membrane preparation
T2 sequence (Q9QYN8 whole entry): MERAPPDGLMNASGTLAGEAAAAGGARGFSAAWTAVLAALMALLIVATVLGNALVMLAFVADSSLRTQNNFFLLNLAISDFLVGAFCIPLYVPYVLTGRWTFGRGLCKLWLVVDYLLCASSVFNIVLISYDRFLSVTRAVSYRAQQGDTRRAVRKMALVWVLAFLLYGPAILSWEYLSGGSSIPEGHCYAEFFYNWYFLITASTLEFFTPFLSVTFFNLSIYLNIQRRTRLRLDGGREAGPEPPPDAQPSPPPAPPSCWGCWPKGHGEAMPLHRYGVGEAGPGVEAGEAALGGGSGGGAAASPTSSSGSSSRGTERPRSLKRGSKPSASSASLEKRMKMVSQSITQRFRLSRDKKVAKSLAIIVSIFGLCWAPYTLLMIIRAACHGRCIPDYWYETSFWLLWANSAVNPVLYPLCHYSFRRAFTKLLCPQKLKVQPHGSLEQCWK
Kind of series: Rat H3 radioligand binding ([3H]-N-alpha-methylhistamine, SPA). The note with it: membranes of CHO-A3 cells expressing rat H3 receptor; [3H]-N-alpha-methylhistamine about 1 nM.
Excerpt: as §1, with “Cell line development and membrane preparation. The rat” for “Methods: CHO cells stably expressing the human”, “cDNA was PCR amplified from reverse-transcribed RNA pooled from rat thalamus, hypothalamus, striatum and prefrontal cortex with a sequence corresponding to by #338-1672 of Genbank file #NM_053506, encoding the entire 445-amino-acid rat histamine H3 receptor. This was engineered into the pIRES-neo3 mammalian expression vector, which was stably transfected into the CHO-A3 cell line (Euroscreen, Belgium), followed by clonal selection by limiting dilution. Cells” for “(GenBank: NM_007232)”
as §2

Structures can show the parent of a compound that is named as a salt.

T1 sequence (Q9Y5N1 whole entry): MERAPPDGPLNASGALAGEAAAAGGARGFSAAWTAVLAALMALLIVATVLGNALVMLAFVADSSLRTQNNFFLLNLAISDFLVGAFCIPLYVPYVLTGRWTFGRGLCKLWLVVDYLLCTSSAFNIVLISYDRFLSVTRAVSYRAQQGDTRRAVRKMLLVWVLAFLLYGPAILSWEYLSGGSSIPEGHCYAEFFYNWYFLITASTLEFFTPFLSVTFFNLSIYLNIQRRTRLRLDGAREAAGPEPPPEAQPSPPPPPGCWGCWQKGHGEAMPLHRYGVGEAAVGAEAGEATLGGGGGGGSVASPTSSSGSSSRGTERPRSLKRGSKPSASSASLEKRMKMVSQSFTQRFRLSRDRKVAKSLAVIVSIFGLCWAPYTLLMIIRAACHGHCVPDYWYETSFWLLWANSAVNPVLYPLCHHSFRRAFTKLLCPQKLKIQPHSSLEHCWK

With `O=c1cccnn1CCCOc1ccc2c(c1)CCC1(CCN(C3CCC3)CC1)O2` (as salt: HCl) [Example 24, 1′-Cyclobutyl-6-(3-(2-pyridazin-3-one)propyloxy]-spiro[3,4-dihydrobenzopyran-2,4′-piperidine]], the melting point (in general, the temperature, or range, at which the solid turns liquid) lay within 207 to 209 °C.

With `O=c1cccnn1CC(O)COc1ccc2c(c1)CCC1(CCN(C3CCC3)CC1)O2` (stereo not drawn) (as salt: HCl) [Example 25, 1′-Cyclobutyl-6-(3-(2-pyridazin-3-one)-2-hydroxypropyloxy]-spiro[3,4-dihydrobenzopyran-2,4′-piperidine]], the melting point was 201 to 203 °C.

Take `O=c1cc(-c2ccc3c(c2)COC2(CCN(C4CCC4)CC2)O3)cn[nH]1` (as salt: HCl) [Example 26]: the melting point lay in the range of 258 to 262 °C.

As for `Cc1cc2c(cc1-c1ccc(=O)n(C)n1)COC1(CCN(C3CCC3)CC1)O2` (as salt: HCl) [Example 30], the melting point lay within 269 to 270 °C.

The molecule `Cc1c(-c2ccc(=O)[nH]n2)ccc2c1COC1(CCN(C3CCC3)CC1)O2` (as salt: HCl) [Example 31] yielded a melting point of 255 to 257 °C.

Molecule `O=C1NN=C(c2ccc3c(c2)COC2(CCN(C4CCC4)CC2)O3)C2CC12` (stereo not drawn) (as salt: HCl) [Example 37] displayed a melting point of more than 300 °C.

As for `O=C1NN=C(c2ccc3c(c2)COC2(CCN(C4CCC4)CC2)O3)C2CCC12` (stereo not drawn) (as salt: HCl) [Example 38], the melting point was 271 to 274 °C.

Take `CC1CC(=O)NN=C1c1ccc2c(c1)COC1(CCN(C3CCC3)CC1)O2` (stereo not drawn) (as salt: HCl) [Example 39]: the melting point lay in the range of 209 to 214 °C.

Molecule `Cc1cc(=O)[nH]nc1-c1ccc2c(c1)COC1(CCN(C3CCC3)CC1)O2` (as salt: HCl) [Example 40] showed a melting point of 265 to 267 °C.

For `Cc1c(-c2ccc3c(c2)COC2(CCN(C4CCC4)CC2)O3)n[nH]c(=O)c1C` (as salt: HCl) [Example 41], the melting point was more than 300 °C.

Take `O=C1NN=C(c2ccc3c(c2)CCC2(CCN(C4CCC4)CC2)O3)C2CCC12` (racemic) [Example 10, 1′-Cyclobutyl-6-(3,4-diaza-bicyclo[4.2.0]oct-4-en-2-one-5-yl)-spiro[3,4-dihydrobenzopyran-2,4′-piperidine]]: the Ki (on human H3 receptor; in series [1]) was less than 200 nM in each case.

As for `O=C1NN=C(c2ccc3c(c2)CCC2(CCN(C4CCC4)CC2)O3)C2CCC12` (single isomer, unassigned) [Example 22], the Ki (on human H3 receptor; in series [1]) was less than 200 nM each time.

Consider `O=C1NN=C(c2ccc3c(c2)CCC2(CCN(C4CCC4)CC2)O3)C2CCC12` (single isomer, unassigned) [Example 23], for which the Ki (at human H3 receptor; in series [1]) was less than 200 nM each time.

On to `O=C1CCC(c2ccc3c(c2)CC2(CCN(C4CCC4)CC2)O3)=NN1` [Example 1, 6-(1-Cyclobutyl-spiro[benzofuran-2(3H),4′-piperidine]-5-yl)-4,5-dihydro-2H-pyridazin-3-one], for which the melting point is 207 to 209 °C. Moreover, the Ki (in general, the equilibrium dissociation constant of an inhibitor or competing ligand from its target) at human H3 receptor is less than 200 nM. Also, the Ki in series [1] was less than 200 nM.

As for `O=C1NN=C(c2ccc3c(c2)CC2(CCN(C4CCC4)CC2)O3)C2CC12` (stereo not drawn) [Example 2, l′-cyclobutyl-5-(3,4-diaza-bicyclo[4.1.0]hepten-2-one-5-yl)-spiro[benzofuran-2(3H),4′-piperidine]], the melting point lay within 189 to 191 °C. For the same molecule, the Ki on human H3 receptor was less than 200 nM. This molecule also gave a Ki in series [1] of less than 200 nM.

With `CC1CC(=O)NN=C1c1ccc2c(c1)CC1(CCN(C3CCC3)CC1)O2` (stereo not drawn) [Example 3, 6-(1-Cyclobutyl-spiro[benzofuran-2(3H),4′-piperidine]-5-yl)-5-methyl-4,5-dihydro-2H-pyridazin-3-one], the melting point lay in the range of 213 to 215 °C. Also, the Ki on human H3 receptor was less than 200 nM. Further, the Ki in series [1] is 200 to 1000 nM.

Regarding `Cc1cc(=O)[nH]nc1-c1ccc2c(c1)CC1(CCN(C3CCC3)CC1)O2` [Example 4, 6-(Cyclobutyl-spiro[benzofuran-2(3H),4′-piperidine]-5-yl)-5-methyl-2H-pyridazin-3-one], the melting point lay within 243 to 245 °C. This molecule yielded a Ki at human H3 receptor of less than 200 nM. The molecule further showed a Ki in series [1] of less than 200 nM.

Consider `O=C1CCC(c2ccc3c(c2)CCC2(CCN(C4CCC4)CC2)O3)=NN1` [Example 5], for which the melting point lay within 242 to 243.5 °C. Further, the Ki at human H3 receptor was less than 200 nM. Further, the Ki in series [1] was less than 200 nM.

`O=C1NN=C(c2ccc3c(c2)CCC2(CCNCC2)O3)C2CC12` (stereo not drawn) [Example 6, 6-(3,4-diaza-bicyclo[4.1.0]hept-4-en-2-one-5-yl)-spiro[3,4-dihydrobenzopyran-2,4′-piperidine]]: the Ki (at human H3 receptor; in series [1]) was more than 1000 nM in each case.

Turning to `O=C1NN=C(c2ccc3c(c2)CCC2(CCN(C4CCC4)CC2)O3)C2CC12` (stereo not drawn) [Example 7, 1′-Cyclobutyl-6-(3,4-diaza-bicyclo[4.1.0]hept-4-en-2-one-5-yl)-spiro[3,4-dihydrobenzopyran-2,4′-piperidine]], the Ki (at human H3 receptor; in series [1]) was less than 200 nM throughout.

On to `O=C1NN=C(c2ccc3c(c2)CCC2(CCN(C4CCCC4)CC2)O3)C2CC12` (stereo not drawn) [Example 8, 1′-Cyclopentyl-6-(3,4-diaza-bicyclo[4.1.0]hept-4-en-2-one-5-yl)-spiro[3,4-dihydrobenzopyran-2,4′-piperidine]], for which the Ki (at human H3 receptor; in series [1]) was less than 200 nM each time.

For the molecule `CC(C)N1CCC2(CCc3cc(C4=NNC(=O)C5CC45)ccc3O2)CC1` (stereo not drawn) [Example 9], the Ki (on human H3 receptor; in series [1]) was less than 200 nM in each case.

With `CC1(C)CC(c2ccc3c(c2)CCC2(CCN(C4CCC4)CC2)O3)=NNC1=O` [Example 11, 1′-Cyclobutyl-6-(4,4-dimethyl-4,5-dihydro-2H-pyridazin-3-one-6-yl)-spiro[3,4-dihydrobenzopyran-2,4′-piperidine]], the Ki (on human H3 receptor; in series [1]) was less than 200 nM in each case.

As for `O=c1cccnn1CCCOc1ccc2c(c1)CCC1(CCN(C3CCC3)CC1)O2` [Example 24, 1′-Cyclobutyl-6-(3-(2-pyridazin-3-one)propyloxy]-spiro[3,4-dihydrobenzopyran-2,4′-piperidine]], the Ki (on human H3 receptor; in series [1]) was less than 200 nM throughout.

Turning to `O=c1cccnn1CC(O)COc1ccc2c(c1)CCC1(CCN(C3CCC3)CC1)O2` (stereo not drawn) [Example 25, 1′-Cyclobutyl-6-(3-(2-pyridazin-3-one)-2-hydroxypropyloxy]-spiro[3,4-dihydrobenzopyran-2,4′-piperidine]], the Ki (at human H3 receptor; in series [1]) was less than 200 nM each time.

In the case of `O=c1cc(-c2ccc3c(c2)COC2(CCN(C4CCC4)CC2)O3)cn[nH]1` [Example 26], the Ki (on human H3 receptor; in series [1]) was less than 200 nM each time.

For the molecule `Cc1cc2c(cc1-c1ccc(=O)n(C)n1)COC1(CCN(C3CCC3)CC1)O2` [Example 30], the Ki (at human H3 receptor; in series [1]) was less than 200 nM in each case.

`Cc1c(-c2ccc(=O)[nH]n2)ccc2c1COC1(CCN(C3CCC3)CC1)O2` [Example 31]: the Ki (at human H3 receptor; in series [1]) was less than 200 nM in each case.

As to `CC1(C)CC(c2ccc3c(c2)COC2(CCN(C4CCC4)CC2)O3)=NNC1=O` [Example 34, 1′-Cyclobutyl-6-[5H-4,4-dimethylpyridazin-3-one)-spiro[1,3-benzodioxine-2,4′-piperidine]], the Ki (on human H3 receptor; in series [1]) was less than 200 nM throughout.

Consider `O=C1NN=C(c2ccc3c(c2)COC2(CCN(C4CCC4)CC2)O3)C2CC12` (stereo not drawn) [Example 37], for which the Ki (at human H3 receptor; in series [1]) was less than 200 nM in each case.

As for `O=C1NN=C(c2ccc3c(c2)COC2(CCN(C4CCC4)CC2)O3)C2CCC12` (stereo not drawn) [Example 38], the Ki (at human H3 receptor; in series [1]) was less than 200 nM each time.

On to `CC1CC(=O)NN=C1c1ccc2c(c1)COC1(CCN(C3CCC3)CC1)O2` (stereo not drawn) [Example 39], for which the Ki (on human H3 receptor; in series [1]) was less than 200 nM each time.

Take `Cc1cc(=O)[nH]nc1-c1ccc2c(c1)COC1(CCN(C3CCC3)CC1)O2` [Example 40]: the Ki (on human H3 receptor; in series [1]) was less than 200 nM throughout.

Take `Cc1c(-c2ccc3c(c2)COC2(CCN(C4CCC4)CC2)O3)n[nH]c(=O)c1C` [Example 41]: the Ki (at human H3 receptor; in series [1]) was less than 200 nM in each case.
